The values that follow come from paper PMC6562610, “Inhibition of Hedgehog Signaling in Fibroblasts, Pancreatic, and Lung Tumor Cells by Oxy186, an Oxysterol Analogue with Drug-Like Properties” (Cells, 2019).

As a reminder, the fraction remaining is the share of the starting amount still present when the sample was taken. Usually half-life stands for the time in which the quantity being followed falls by half. In general, IC50 refers to the point on the concentration scale where inhibition reaches its midpoint. High values mean a need for much substance, low ones inhibition by little substance.

“Also recorded” adds a separate entry of the source.

A short description of data set [1]: Metabolic stability in mouse liver microsomes. It counts as in vitro ADME.
Data set [2] can be described thus: Pharmacokinetic study in mice, single oral dose. It is filed as in vivo, balb/c mice. The conditions noted are these: Figure 8b drug-like properties summary. The procedure: In an initial assessment of the drug-like properties of Oxy186, we performed a pharmacokinetic (PK) study in mice. Oxy186, formulated in 4% ethanol, 15% DMSO, and 81% corn oil, was administered to balb/c mice by oral gavage as a single dose of 50 mg/kg.
Figure 8 Drug-like properties of Oxy186. (a) A single dose of Oxy186 at 50 mg/kg, formulated in 4% ethanol/ 15% DMSO/ 81% corn oil, was administered to balb/c mice by oral gavage. Plasma samples were taken at 10 min, 30 min, 1, 2, 4, 6, 8, and 24 h, followed by LC/MS analysis of the plasma. (b) Evolution of Oxy186 from parent compound Oxy16 and their drug-like properties.

Data set [3] has as its system Hh target gene Gli1 expression in NIH3T3-E1 cells. In words: Inhibition of CAPAN-1 conditioned medium (ligand)-induced Gli1 mRNA expression, Q-RT-PCR. It counts as cell-based. As to conditions: NIH3T3 cells activated by CAPAN-1 CM Hh ligands, 72 h. The text has this:
(§1) NIH3T3-E1 fibroblasts were obtained from ATCC (Manassas, VA) and cultured, as previously described. CAPAN-1 and PANC-1 human pancreatic cancer cells were obtained from ATCC and cultured in Dulbecco’s Modified Eagle Medium (DMEM) containing 10% heat-inactivated fetal bovine serum (FBS) (Hyclone Laboratories, Logan, UT, USA) and antibiotics, as previously described. The human lung cancer cell lines A549 and H2030 were obtained from ATCC and cultured in RPMI-1640 containing 10% FBS. The human hepatoma cell line HepG2 was obtained from ATCC and cultured in DMEM containing 10% FBS. Mouse embryonic fibroblasts (MEFs) from suppressor of fused (Sufu) null mice (Sufu^−/−) were provided by Dr. Philip Beachy of Stanford University and cultured in DMEM containing 10% FBS. Gant61, SB431542 and vismodegib (GDC0449) were obtained from Cayman Chemical, HPI-1 was obtained from Abcam. For experiments, cells were treated in a medium containing 5% FBS.
Growth medium in confluent […] tissue culture plates of CAPAN-1 cells were replaced with 10 ml of fresh growth medium and cells were incubated for a total of 7 days. Conditioned medium (CM), containing Shh and Ihh, was collected and spun down to remove any detached cells and debris, aliquoted, and stored frozen at −80 °C [37].
Total RNA was extracted with the RNeasy Plus Mini Kit from Qiagen, according to the manufacturer’s instructions. One microgram of RNA was reverse-transcribed using an iScript Reverse Transcription Supermix from Bio-Rad, to make single-stranded cDNA. The cDNAs were then mixed with Qi SYBR Green Supermix (Bio-Rad, Hercules, CA, USA) for quantitative RT-PCR assay using a Bio-Rad I-cycler IQ quantitative thermocycler. […] Fold changes in gene expression were calculated using the ΔΔCt method. […]
Figure 3 Inhibition of ligand-induced Hedgehog signaling. […] After 72 h, RNA was extracted and analyzed by Q-RT-PCR for the expression of Hh target genes Gli1 (a,b,d) and Ptch1 (c), and normalized to Oaz1 expression. […] Luciferase activity was measured and normalized to the Renilla luciferase activity. […]

For data set [4], the system named is LXR target gene Abca1. In words: Induction of LXR target gene Abca1 in NIH3T3 cells, Q-RT-PCR. It is filed as cell-based, mouse. The procedure:
(§2) Total RNA was extracted with the RNeasy Plus Mini Kit from Qiagen, according to the manufacturer’s instructions. One microgram of RNA was reverse-transcribed using an iScript Reverse Transcription Supermix from Bio-Rad, to make single-stranded cDNA. The cDNAs were then mixed with Qi SYBR Green Supermix (Bio-Rad, Hercules, CA, USA) for quantitative RT-PCR assay using a Bio-Rad I-cycler IQ quantitative thermocycler. All PCR samples were prepared in triplicate wells in a 96-well plate. After 40 cycles of PCR, melt curves were examined in order to ensure primer specificity. Fold changes in gene expression were calculated using the ΔΔCt method. Primers used for mouse were as follows: Oaz1 (5’-CCACTGCTTCGCCAGAGAG-3’) and (5’-CCCGGACCCAGGTTACTA-3’), Gli1 (5’-[…]-3’ and 5’-[…]-3’), Ptch1 (5’-CCATCGGCGACAAGAACC-3’ and 5’-[…]-3’), Hip (5’-[…]-3’ and 5’-[…]-3’), and Abca1 (5’-[…]-3’ and 5’-[…]-3’). Primers used for human were as follows: SREBP1c (5’-CGCTCCTCCATCAATGACA-3’ and 5’-[…]-3’), GAPDH (5’-[…]-3’ and 5’-[…]-3’), SHH (5’-CGGAGCGAGGAAGGGAAAG-3’) and (5’-[…]-3’), and GLI1 (5’-GAAGCCGAGCCGAGTATC-3’ and 5’-[…]-3’).
Figure 7 Induction of LXR target gene expression by Oxy186 and LXR agonist TO901317 (TO). (a) NIH3T3 cells and (b) HepG2 cells were treated with DMEM containing 5% FBS in the presence or absence of TO (2 µM) or Oxy186 (10 µM). […] Data from a representative experiment are reported as the mean of triplicate determinations ± SD (** p < 0.01 vs. control).

Data set [5] in a line: Metabolic stability in human liver microsomes. It is filed as in vitro ADME.
Data set [6] has as its system Gli1 expression in A549 cells. In words: Inhibition of Gli1 expression in A549 cells, Q-RT-PCR. It counts as cell-based, human. As to conditions: 72 h.
Description: as §1
(§3) Total RNA was extracted with the RNeasy Plus Mini Kit from Qiagen, according to the manufacturer’s instructions. One microgram of RNA was reverse-transcribed using an iScript Reverse Transcription Supermix from Bio-Rad, to make single-stranded cDNA. The cDNAs were then mixed with Qi SYBR Green Supermix (Bio-Rad, Hercules, CA, USA) for quantitative RT-PCR assay using a Bio-Rad I-cycler IQ quantitative thermocycler. All PCR samples were prepared in triplicate wells in a 96-well plate. […] Fold changes in gene expression were calculated using the ΔΔCt method. […]
(§4) Figure 4 Inhibition of Gli and Shh expression in (a) PDAC (PANC-1) and (b,c) human lung cancer cells (A549 and H2030, respectively) by Oxy186. Cells were treated with the compounds as indicated in DMEM or RPMI 1640 containing 5% FBS for (a) 48 or (b,c) 72 hours, then RNA was extracted and analyzed by Q-RT-PCR for the expression of Gli1 and normalized to GAPDH expression. (d) CAPAN-1 cells were treated with the compounds, as indicated, in DMEM containing 5% FBS for 72 h, then RNA was extracted and analyzed by Q-RT-PCR for the expression of Shh and normalized to GAPDH expression. […]

For data set [7], the system named is A549 cells. In words: Cell counting assay, A549. It counts as cell-based, human. As to conditions: 96 h. The procedure: (§5) A549 and H2030 cells cultured in 12-well plates at 20% confluence were treated with Oxy186, HPI-1, Gant61, or GDC0449 for 96 hours and then trypsinized and suspended in fresh medium. An aliquot of cell suspension was applied to a hemocytometer and counted under a microscope.
(§6) Figure 6 Inhibition of human pancreatic and lung cancer cell proliferation by Oxy186. (a,c) A549, (b) and (d) H2030, (e) PANC-1, and (f) CAPAN-1 cells were treated with the compounds as indicated in RPMI 1640 (a–d) or DMEM (e,f) containing 5% FBS for 96 h and then were trypsinized and counted. Data from a representative experiment are reported as the mean of triplicate determinations ± SD (* p < 0.05 vs. Control; ** p < 0.01 vs. control).

The test system of data set [8] is Gli1 expression in PANC-1 cells. In words: Inhibition of baseline Gli1 expression in PANC-1 cells, Q-RT-PCR. It is filed as cell-based, human. As to conditions: 48 h.
Description: as §1, §3, §4

In data set [9] the test system is Gli1 expression in H2030 cells. In words: Inhibition of Gli1 expression in H2030 cells, Q-RT-PCR. It counts as cell-based, human. As to conditions: 72 h.
Description: as §1, §3, §4

For data set [10], the system named is Shh expression in CAPAN-1 cells. In words: Inhibition of Shh expression in CAPAN-1 cells, Q-RT-PCR. It is filed as cell-based, human. As to conditions: 72 h.
Description: as §1, §3, §4

The subject of data set [11] is CAPAN-1 cells. In words: Cell counting assay, CAPAN-1. The conditions noted are these: 96 h. It counts as cell-based, human. The procedure:
as §5, §6

Data set [12] deals with LXR target gene SREBP1c. In words: Induction of LXR target gene SREBP1c in HepG2 cells, Q-RT-PCR. It is filed as cell-based, human. The conditions noted are these: 2 µM, 72 h. The procedure:
as §2
Figure 7 Induction of LXR target gene expression by Oxy186 and LXR agonist TO901317 (TO). (a) NIH3T3 cells and (b) HepG2 cells were treated with DMEM containing 5% FBS in the presence or absence of TO (2 µM) or Oxy186 (10 µM). […]

In data set [13] the test system is H2030 cells. In words: Cell counting assay, H2030. It is filed as cell-based, human. As to conditions: 96 h. The procedure:
as §5, §6

Data set [14] relates to PANC-1 cells. In words: Cell counting assay, PANC-1. It is filed as cell-based, human. The conditions noted are these: 96 h. The procedure: as §5, §6

Regarding `CC(C)CCC(O)C(C)(O)C1CCC2C3CC=C4CC(O)CCC4(C)C3CCC21C` [Oxy16, 20-α, 22(R)-dihydroxycholesterol, reference compound], the share remaining at 1 h in [1] (60 min, read-out: MLM, % Remaining after 60 min) was determined as 5%; in data set [5] (60 min, read-out: HLM, % Remaining after 60 min), 6%. The half-life in data set [1] (read-out: MLM, Half-Life) was 14 min; in data set [5] (human, liver microsomes, read-out: HLM, Half-Life), under 15 min. Besides, the “In vivo availability / stability (Figure 8b summary)” value in data set [2] is reported as “Unstable in vivo”. Besides, the IC50 in data set [3] was over 5 µM. Besides, the “LXR agonism (Figure 8b summary)” value in [4] (Figure 8b drug-like properties summary) was “Stronger LXR agonist”. For the same molecule, in [5], the “HLM, Half-Life” value turned out to be 15 min.

Regarding `CS(=O)(=O)c1ccc(C(=O)Nc2ccc(Cl)c(-c3ccccn3)c2)c(Cl)c1` [GDC0449, vismodegib], the “Inhibition of expression of Gli1” value in data set [6] (10 µM) and in data set [9] (10 µM) was “significantly inhibited” throughout. For the same molecule, the “Inhibition of cell proliferation” value in data set [7] (10 µM) is reported as “not”. The “Inhibition of high baseline expression of Gli1” value in data set [8] (10 µM) was “did not have a similar effect”. Further, the “Inhibition of Shh expression” value in data set [10] was “inhibitory effects on Shh expression in CAPAN-1 cells, but to a lesser extent”. In addition, the Anti-proliferation effect result in [11] is listed as “marginally effective”.

In the case of `O=S(=O)(c1ccccc1)N(CC(F)(F)F)c1ccc(C(O)(C(F)(F)F)C(F)(F)F)cc1` [TO901317, reference compound], the “Induction of expression of LXR target gene Abca1” value in data set [4] (NIH3T3-E1 cells, 2 µM, 72 h) is “significantly induced”. The “Induction of expression of SREBP1c” value in [12] is given as “significantly induced”.

In the case of `CN(C)c1ccccc1CN1CCCN(Cc2ccccc2N(C)C)C1c1ccncc1` [Gant61], the Anti-proliferative effect result in data set [13] was “significant anti-proliferative effect”. For the same molecule, the “Inhibition of expression of Gli1” value in data set [6] (20 µM) and in data set [9] (20 µM) was “significantly inhibited” throughout. Besides, the “Inhibition of cell proliferation” value in [7] (20 µM) is “significantly inhibited”. For the same molecule, the “Inhibition of high baseline expression of Gli1” value in data set [8] (20 µM) is recorded as “significantly inhibited”. The “Inhibition of Shh expression” value in data set [10] was “inhibitory effects on Shh expression in CAPAN-1 cells, but to a lesser extent; also recorded: significant inhibition”. Moreover, the Anti-proliferation effect result in data set [11] and in data set [14] was “significant anti-proliferation effects” throughout.
